pIC50: −log10 of the molar value.
Tests used:
[1] = tested on: human amelanotic melanoma cell line (LOX)
Procedure: A live cell toxicity assay marketed as LIVE/DEAD Viability/Cytotoxicity Kit by Molecular Probes, Inc. of Eugene, Oreg., was obtained for the test. The assays were carried out in accordance with the manufacturers' instructions using the LOX cells. The LOX cells (10^4/well) were cultured and incubated in a carbon dioxide incubator at 37° C. overnight and then gently washed with PBS.
Calcein Am (2 μM), a fluorescent dye available from Molecular Probes, Inc. for staining live cells, was added to the LOX cells. The Calcein-stained LOX cells were incubated at room temperature for about an hour. […] A positive fluorescence signal from the assay indicates the presence of viable cells in the test sample with the strength of the signal being proportional to the number of viable cells present.
The live cell toxicity assay was carried out four times (n=4) for each test compound.

[2] = tested on: human amelanotic melanoma cell line (LOX); assay: Collagen degradation inhibition assay (fluorescent-labeled Type I collagen matrix seeded with LOX cells); format: cell-based; conditions: LOX cells on Type I collagen matrix, dosages 10^−12 to 10^−3 M, n=4
[3] = tested on: human amelanotic melanoma cell line (LOX); assay: Apoptosis assay (Vybrant Apoptosis Assay Kit #4, YO-PRO); format: cell-based; conditions: LOX cells, overnight incubation; dosages 10^−12 to 10^−3 M; n=4
Procedure: An apoptosis assay marketed as Vybrant Apoptosis Assay Kit #4 from Molecular Probes, Inc., was obtained for the test. […] The apoptosis assay was performed four times (n=4) for each test compound.

CCCCC[C@@H](O)CC[C@H]1[C@H](O)CC2Cc3c(cccc3OCC(=O)O)C[C@@H]21 (stereo partly drawn) [compound of Formula II, 9-Deoxy-2′,9α-methano-3-oxa-4,5,6-trinor-3,7-(1′,3′-interphenylene)-13,14-dihydro-PGF1]
dosage at which cell toxicity / inhibited cell viability was exhibited [1]: over 10^−6 M
pIC50 ([2]; Homo sapiens): 8.00
dosage at which collagen degradation activity by LOX cells was inhibited (lowest effective dosage) [2]: 2.5 nM
dosage at which a marked increase in the incidence of apoptosis was seen [3]: over 10^−4 M
